Test results published in patent US7799791B2, “Tetrahydrofuro(3,2-B) pyrrol-3-one derivatives as inhibitors of cysteine proteinases” (Amura Therapeutics Limited, priority 2007, dated 2010).
Like-named read-outs stand apart in the source and are kept apart here.

Assays:
[1] = molecular target: T1, Human recombinant cathepsin K (Homo sapiens, UniProt P43235); assay: In vitro cathepsin Ki inhibition measurements; format: biochemical
T1 construct: purchased B. Turk, Josef, Stefan Institute, Ljubljana, Slovenia
T1 sequence (P43235 115-329): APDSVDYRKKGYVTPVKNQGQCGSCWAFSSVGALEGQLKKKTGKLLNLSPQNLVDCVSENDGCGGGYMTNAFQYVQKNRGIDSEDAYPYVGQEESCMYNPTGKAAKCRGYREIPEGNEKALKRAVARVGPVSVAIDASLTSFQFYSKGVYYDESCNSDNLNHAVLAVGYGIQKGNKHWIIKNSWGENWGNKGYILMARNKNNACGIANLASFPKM
Protocol: Stock solutions of substrate or inhibitor were made up to 10 mM in 100% dimethylsulfoxide (DMSO) (Rathburns, Glasgow, U.K.) and diluted as appropriately required. In all cases the DMSO concentration in the assays was maintained at less than 1% (vol./vol.). The equilibrium inhibition constants (Ki^ss) for each compound were measured under steady-state conditions monitoring enzyme activity as a function of inhibitor concentration. The values were calculated on the assumption of pure competitive behaviour (Cornish-Bowden, A. Fundamentals of enzyme kinetics Portland Press; 1995, 93-128.). Human recombinant cathepsin K (0.25 nM final; B. Turk, Josef, Stefan Institute, Ljubljana, Slovenia), was routinely assayed in 100 mM sodium acetate; pH 5.5 containing 1 mM EDTA, 10 mM L-cysteine and 1.8 μM Z-Leu-Arg-AMC ([S]=KM).
The apparent inhibition constant (Ki) for each compound was determined on the basis that inhibition was reversible and occurred by a pure-competitive mechanism. The Ki values were calculated, from the dependence of enzyme activity as a function of inhibitor concentration, by direct regression analysis (Prism v 3.02) using Equation 2 (Comish-Bowden, A., 1995.).
In situations where the apparent dissociation constant (Ki^app) approached the enzyme concentrations, the Ki^app values were calculated using a quadratic solution in the form described by Equation 3 (Morrison, J. F. Trends Biochem. Sci., 7, 102-105, 1982; Morrison, J. F. Biochim. Biophys. Acta. 185, 269-286, 1969; Stone, S. R. and Hofsteenge, J. Biochemistry, 25, 4622-4628, 1986).
Curves were fitted by non-linear regression analysis (Prism) using a fixed value for the enzyme concentration. Equation 4 was used to account for the substrate kinetics, where ‘Ki’ is the inhibition constant, ‘[So]’ is the initial substrate concentration and ‘KM^app’ is the apparent macroscopic binding (Michaelis) constant for the substrate (Morrison, 1982).

[2] = Plasma incubations (human plasma stability); format: in vitro ADME; conditions: 37° C., 25 μM, percent remaining at 1 hour
Protocol: Human and rat plasma were purchased from Innovative Research Inc. (Southfield. Mich., USA). […] Aliquots were removed at 2 and 60 minutes and quenched with an equal volume of cold acetonitrile. After mixing vigorously, the precipitated protein matter was removed by filtration (Multiscreen Solvinert filter plates, Millipore, Bedford, Mass., USA) and the filtrate analysed by reverse phase HPLC with mass spectrometric detection, using single ion monitoring of the [M+H]^+ species. Metabolic turnover was determined by comparison of peak areas from the ion chromatograms of the parent compound at 2 and 60 minutes and expressed as percent remaining at 1 hour.

[3] = prior art WO-A-02057270 examples, Table 2, read-out: Ki (nM) vs Human Cathepsin K
[4] = Table 1, read-out: In vitro Ki (nM) vs Cath K

| Compound | Ki [1, 3] [nM] | Human Plasma Stability % rem. @ 1 h [2] [%] | Ki [1, 4] [nM] |
| --- | --- | --- | --- |
| N-((S)-4-methyl-1-oxo-1-((3aS,6aR)-3-oxodihydro-2H-furo[3,2-b]pyrrol-4(5H,6H,6aH)-yl)pentan-2-yl)-4-(2-(4-methylpiperazin-1-yl)thiazol-4-yl)benzamide [Example 3] | > 4000 | – | – |
| N-((S)-1-cyclopentyl-2-((3aS,6R,6aS)-6-methoxy-3-oxodihydro-2H-furo[3,2-b]pyrrol-4(5H,6H,6aH)-yl)-2-oxoethyl)-4-(2-(4-methylpiperazin-1-yl)thiazol-4-yl)benzamide [Example 2] | > 50000 | – | – |
| CN1CCN(c2nc(-c3ccc(C(=O)N[C@H](C(=O)N4CC[C@H]5OCC(=O)[C@H]54)C4CCCC4)cc3)cs2)CC1 [Example 5, N-((S)-1-cyclopentyl-2-oxo-2-((3aS,6aR)-3-oxodihydro-2H-furo[3,2-b]pyrrol-4(5H,6H,6aH)-yl)-2-oxoethyl)-4-(2-(4-methylpiperazin-1-yl)thiazol-4-yl)benzamide] | – | 82.5 | 1.3 |
| CC(C)C[C@H](NC(=O)c1ccc(C(C)(C)C)cc1)C(=O)N1CC[C@H]2OCC(=O)[C@H]21 [Prior art compound 23, reference compound] | – | 75 | 87.4 |
| CN1CCN(c2nc(-c3ccc(C(=O)N[C@@H](CC(C)(C)C)C(=O)N4CC[C@H]5OCC(=O)[C@H]54)cc3)cs2)CC1 [Example 4, N-((S)-4,4-dimethyl-1-oxo-1-((3aS,6aR)-3-oxodihydro-2H-furo[3,2-b]pyrrol-4(5H,6H,6aH)-yl)pentan-2-yl)-4-(2-(4-methylpiperazin-1-yl)thiazol-4-yl)benzamide] | – | 91.9 | 1.7 |
| CC(C)C[C@H](NC(=O)c1ccc(-c2csc(N3CCN(C)CC3)n2)cc1)C(=O)N1CC[C@H]2OCC(=O)[C@H]21 [Example 3, N-((S)-4-methyl-1-oxo-1-((3aS,6aR)-3-oxodihydro-2H-furo[3,2-b]pyrrol-4(5H,6H,6aH)-yl)pentan-2-yl)-4-(2-(4-methylpiperazin-1-yl)thiazol-4-yl)benzamide] | – | 92.6 | 1.7 |
| CO[C@@H]1CN(C(=O)[C@@H](NC(=O)c2ccc(-c3csc(N4CCN(C)CC4)n3)cc2)C2CCCC2)[C@@H]2C(=O)CO[C@@H]21 [Example 2, N-((S)-1-cyclopentyl-2-((3aS,6R,6aS)-6-methoxy-3-oxodihydro-2H-furo[3,2-b]pyrrol-4(5H,6H,6aH)-yl)-2-oxoethyl)-4-(2-(4-methylpiperazin-1-yl)thiazol-4-yl)benzamide] | – | 98.2 | 1.9 |
| CO[C@H]1CN(C(=O)[C@@H](NC(=O)c2ccc(-c3csc(N4CCN(C)CC4)n3)cc2)C2CCCC2)[C@@H]2C(=O)CO[C@H]12 [Example 1, N-((S)-1-cyclopentyl-2-((3aS,6S,6aS)-6-methoxy-3-oxodihydro-2H-furo[3,2-b]pyrrol-4(5H,6H,6aH)-yl)-2-oxoethyl)-4-(2-(4-methylpiperazin-1-yl)thiazol-4-yl)benzamide] | – | 100 | 1.4 |
